Where two headings read alike, the source gives them in different places.
How the values were obtained:
[1] = target: T1, aromatase (CYP19, BD Biosciences) (Homo sapiens, UniProt P11511); assay: Assay for inhibition of aromatase activity (fluorescence, dibenzylfluorescein)
T1 sequence (P11511 1-503): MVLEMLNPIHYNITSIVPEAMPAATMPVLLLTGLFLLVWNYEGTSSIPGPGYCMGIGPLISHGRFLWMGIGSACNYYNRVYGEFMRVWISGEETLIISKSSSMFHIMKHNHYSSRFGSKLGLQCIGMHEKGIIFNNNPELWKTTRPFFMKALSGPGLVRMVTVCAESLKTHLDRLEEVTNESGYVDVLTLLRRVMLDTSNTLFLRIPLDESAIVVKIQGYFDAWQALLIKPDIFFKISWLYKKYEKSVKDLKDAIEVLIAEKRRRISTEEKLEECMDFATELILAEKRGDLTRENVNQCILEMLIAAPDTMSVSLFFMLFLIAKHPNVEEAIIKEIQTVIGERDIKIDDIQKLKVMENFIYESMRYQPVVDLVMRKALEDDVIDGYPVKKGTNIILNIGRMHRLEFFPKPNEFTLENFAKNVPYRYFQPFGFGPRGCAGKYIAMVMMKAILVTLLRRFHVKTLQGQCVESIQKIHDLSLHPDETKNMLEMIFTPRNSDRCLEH
Protocol: Aromatase inhibition is quantified by measuring the fluorescent intensity of fluorescein, the hydrolysis product of dibenzylfluorescein by aromatase. In brief, the test substance (10 μL) is pre-incubated with the NADPH regenerating system (90 μL of 2.6 mM NADP^+, 7.6 mM glucose 6-phosphate, 0.8 U/mL glucose-6-phosphate dehydrogenase, 13.9 mM MgCl2, and 1 mg/mL albumin in 10 mL of 50 mM potassium phosphate, pH 7.4) for 10 min at 37° C. before 100 μL of the enzyme and substrate mixture [800 μL enzyme (CYP19, BD Biosciences, San Jose, Calif.), 0.4 μM dibenzylfluorescein and 4 mg/mL albumin in 10 mL of 50 mM potassium phosphate, pH 7.4] are added. Then, the reaction mixture is incubated for 30 min at 37° C. to allow aromatase to generate the product, and quenched with 75 μL 2 N NaOH. After the reaction is terminated, a 5-min shaking followed by a 2-h incubation at 37° C. enhances the noise/background ratio and fluorescence is measured at 485 nm (excitation) and 530 nm (emission). All experiments were performed in duplicate and the average was used for calculation of IC50 values (Table 2). Compounds were tested in comparison to aminogluthethimide used as positive control.

[2] = system: HL-60 cells; assay: Induction of differentiation in HL-60 cell line (NBT reduction, 4-day protocol); type: cell-based
[3] = system: TPA-induced ornithine decarboxylase (ODC) activity in T24 cells; assay: Inhibition of TPA-induced ornithine decarboxylase (ODC) activity in T24 cells; type: cell-based; details: Homo sapiens, read-out: IC50, inhibition of TPA-induced ODC activity
[4] = system: TPA-induced NF-κB activity in HepG2 cells stably transfected with NF-κB-luciferase plasmid; assay: Inhibition of TPA-induced NF-κB activity in HepG2 cells (NF-κB-luciferase); type: cell-based, human
[5] = read-out: IC50 (μM), aromatase inhibition, fluorescein from dibenzylfluorescein, 30 min at 37° C., average of duplicates
[6] = T-24, T24 cells, TPA 200 nM, 6 h incubation

| Compound | IC50 [1] [µM] | further results |
| --- | --- | --- |
| CC(C)=CCc1cc(C2CC(=O)c3ccc(O)cc3O2)ccc1O (racemic) [8b, 7-Hydroxy-2-(4-hydroxy-3-(3-methylbut-2-enyl)phenyl)chroman-4-one] |  | melting point: 76 to 78 °C |
| COc1ccc2c(c1)OC(c1ccc(OCC=C(C)C)cc1)CC2=O (racemic) [8k, 7-Methoxy-2-(4-(3-methylbut-2-enyloxy)phenyl)chroman-4-one] |  | melting point: 108 to 110 °C |
| COc1ccc(C(=O)CC(O)c2ccc(OC)c(CC=C(C)C)c2)c(O)c1 (stereo not shown) [3-Hydroxy-1-(2-hydroxy-4-methoxyphenyl)-3-(4-methoxy-3-(3-methylbut-2-enyl)phenyl)propan-1-one] |  | IC50 [1, 5]: 54.7 ± 11.9 µM |
| COCOc1ccc(C(=O)/C=C/c2ccc(OCOC)c(CC=C(C)C)c2)c(O)c1 [7a, 1-(2-Hydroxy-4-(methoxymethoxy)phenyl)-3-(4-(methoxymethoxy)-3-(3-methylbut-2-enyl)phenyl)prop-2-en-1-one] | > 243 |  |
| CC(C)=CCc1cc(/C=C/C(=O)c2ccc(O)cc2O)ccc1O [7b, 1-(2,4-Dihydroxyphenyl)-3-(4-hydroxy-3-(3-methylbut-2-enyl)phenyl)-prop-2-en-1-one] | > 308 | melting point: 167 °C |
| COCOc1ccc(C(=O)/C=C/c2ccc(OC)c(CC=C(C)C)c2)c(O)c1 [7c, 1-(2-Hydroxy-4-(methoxymethoxy)phenyl)-3-(4-methoxy-3-(3-methylbut-2-enyl)phenyl)prop-2-en-1-one] | > 261 |  |
| COc1ccc(/C=C/C(=O)c2ccc(O)cc2O)cc1CC=C(C)C [7d, 1-(2,4-Dihydroxyphenyl)-3-(4-methoxy-3-(3-methylbut-2-enyl)phenyl)prop-2-en-1-one] |  | melting point: 166 to 168 °C; IC50 [1, 5]: 82.9 ± 44.3 µM |
| COCOc1ccc(/C=C/C(=O)c2ccc(OC)cc2O)cc1CC=C(C)C [7e, 1-(2-Hydroxy-4-methoxyphenyl)-3-(4-(methoxymethoxy)-3-(3-methylbut-2-enyl)phenyl)prop-2-en-1-one] | > 261 |  |
| COc1ccc(C(=O)/C=C/c2ccc(O)c(CC=C(C)C)c2)c(O)c1 [7f, 3-(4-Hydroxy-3-(3-methylbut-2-enyl)phenyl)-1-(2-hydroxy-4-methoxyphenyl)prop-2-en-1-one] | > 295 | melting point: 80 to 82 °C |
| COc1ccc(C(=O)/C=C/c2ccc(OC)c(CC=C(C)C)c2)c(O)c1 [7g, 1-(2-Hydroxy-4-methoxyphenyl)-3-(4-methoxy-3-(3-methylbut-2-enyl)phenyl)prop-2-en-1-one] | > 284 | melting point: 82 to 84 °C |
| COc1ccc(/C=C/C(=O)c2ccccc2O)cc1CC=C(C)C [7h, 1-(2-Hydroxyphenyl)-3-(4-methoxy-3-(3-methylbut-2-enyl)phenyl)prop-2-en-1-one] | > 310 |  |
| COc1ccc(C(=O)/C=C/c2cccc(CC=C(C)C)c2)c(O)c1 [7i, 1-(2-Hydroxy-4-methoxyphenyl)-3-(3-(3-methylbut-2-enyl)phenyl)prop-2-en-1-one] | > 310 |  |
| COc1ccc(/C=C/C(=O)c2ccc(OC)cc2O)cc1 [7j, 1-(2-Hydroxy-4-methoxyphenyl)-3-(4-methoxyphenyl)prop-2-en-1-one] | > 352 |  |
| COc1ccc(C(=O)C=Cc2ccc(OCC=C(C)C)cc2)c(O)c1 [7k, 1-(2-Hydroxy-4-methoxyphenyl)-3-(4-(3-methylbut-2-enyloxy)phenyl)prop-2-en-1-one] | > 271 | melting point: 95 to 97 °C |
| O=c1cc(-c2ccc(O)cc2)oc2cc(O)cc(O)c12 [apigenin] |  | ED50, concentration inducing 50% of the cells to differentiate [2]: 10 µM; IC50 [3, 6]: 6 µM |
| COc1cc2c(cc1OC)[C@@H]1C(=O)c3ccc4c(c3O[C@@H]1CO2)C=CC(C)(C)O4 [deguelin] |  | IC50 ([3]; T-24, 6 h): 0.1 µM |
| O=c1c(-c2ccc(O)cc2)coc2cc(O)cc(O)c12 [genistein] |  | ED50, concentration inducing 50% of the cells to differentiate [2]: 30 µM |
| CC1=CC(=O)c2ccccc2C1=O [menadione] |  | IC50 [3, 6]: 8.3 µM |
| Tumor necrosis factor (TNF)-α |  | IC50, standard inhibitor in NF-κB luciferase assay [4]: 0.015 to 0.025 µg/mL |

Continued, in another order:

| IC50 [1] [µM] | Compound | further results |
| --- | --- | --- |
| 13.9 ± 6.09 | COCOc1ccc2c(c1)OC(c1ccc(OCOC)c(CC=C(C)C)c1)CC2=O (racemic) [8a, 7-(Methoxymethoxy)-2-(4-(methoxymethoxy)-3-(3-methylbut-2-enyl)phenyl)-chroman-4-one] |  |
| 7.67 ± 3.27 | COCOc1ccc2c(c1)OC(c1ccc(OC)c(CC=C(C)C)c1)CC2=O (racemic) [8c, 2-(4-Methoxy-3-(3-methylbut-2-enyl)phenyl)-7-(methoxymethoxy)chroman-4-one] |  |
| 4.08 ± 2.1 | COc1ccc(C2CC(=O)c3ccc(O)cc3O2)cc1CC=C(C)C (racemic) [8d, 7-Hydroxy-2-(4-methoxy-3-(3-methylbut-2-enyl)phenyl)chroman-4-one] |  |
| 25.1 ± 6.38 | COCOc1ccc(C2CC(=O)c3ccc(OC)cc3O2)cc1CC=C(C)C (racemic) [8e, 7-Methoxy-2-(4-(methoxymethoxy)-3-(3-methylbut-2-enyl)phenyl)chroman-4-one] |  |
| 4.75 ± 0.61 | COc1ccc2c(c1)OC(c1ccc(O)c(CC=C(C)C)c1)CC2=O (racemic) [8f, 2-(4-Hydroxy-3-(3-methylbut-2-enyl)phenyl)-7-methoxychroman-4-one] |  |
| 3.67 ± 1.61 | COc1ccc2c(c1)OC(c1ccc(OC)c(CC=C(C)C)c1)CC2=O (racemic) [8g, 7-Methoxy-2-(4-methoxy-3-(3-methylbut-2-enyl)phenyl)chroman-4-one] |  |
| 12.1 ± 3.24 | COc1ccc(C2CC(=O)c3ccccc3O2)cc1CC=C(C)C (racemic) [8h, 2-(4-Methoxy-3-(3-methylbut-2-enyl)phenyl)chroman-4-one] |  |
| 4.67 ± 2.15 | COc1ccc2c(c1)OC(c1cccc(CC=C(C)C)c1)CC2=O (racemic) [8i, 7-Methoxy-2-(3-(3-methylbut-2-enyl)phenyl)chroman-4-one] |  |
| 1.86 ± 0.37 | COc1ccc(C2CC(=O)c3ccc(OC)cc3O2)cc1 (racemic) [8j, 7-Methoxy-2-(4-methoxyphenyl)chroman-4-one] |  |

— patent publication US8946287B2, “Chemotherapeutic flavonoids, and syntheses thereof” (Purdue Research Foundation, priority 2006, dated 2015)
